Source: patent publication US11986532B2 (Arvinas Operations, Inc., priority 2021, dated 2024)
Where two headings read alike, the source gives them in different places.

Molecular target: T1, BCL6 (Homo sapiens, UniProt P41182)
T1 construct: endogenous in cells; host or cells: T47D breast cancer epithelial cells
Test: Immunofluorescence protocol for high content imaging of BCL6 (degradation) in T47D cells, 3 days compound treatment
Type: cell-based
Details: for DC50: read-out: Mean DC50 (nM)* category; for Dmax: read-out: Mean Dmax (%)** category
Summary of the method: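 High content immunofluorescence imaging (10×, 4 fields/well) of BCL6 using rabbit primary antibody, Alexa-488 secondary, cell mask and Hoechst nuclear stain after PFA fixation. Before staining, T47D cells (7K/well) were exposed for 3 days at 37° C to 3-fold serial dilutions of compound, top final concentration 0.1 or 1 μM.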

[1] = T47D cells, 3 days compound treatment

Row | Structure (SMILES) | DC50 [1] [nM] | Dmax [1] [%] | Dmax (T47D) [%] | DC50 [nM]
1 | CNC(=O)COc1cc2cc(Nc3nc(N4CCC(CN5CCC6(CC(=O)N(c7ccc8c(c7)CN(C7CCC(=O)NC7=O)C8=O)C6)C5)CC4)ncc3Cl)ccc2n(C(C)C)c1=O (stereo not drawn) [Compound 39, 2-{[6-({5-chloro-2-[4-({7-[2-(2,6-dioxopiperidin-3-yl)-1-oxo-2,3-dihydro-1H-isoindol-5-yl]-8-oxo-2,7-diazaspiro[4.4]nonan-2-yl}methyl)piperidin-1-yl]pyrimidin-4-yl}amino)-2-oxo-1-(propan-2-yl)-1,2-dihydroquinolin-3-yl]oxy}-N-methylacetamide] | < 10 | 50 to 70 | – | –
2 | CNC(=O)COc1cc2cc(Nc3nc(N4CCC(O[C@H]5C[C@H](N6[C@@H](C)CN(c7ccc8c(c7)CN(C7CCC(=O)NC7=O)C8=O)C[C@@H]6C)C5)CC4)ncc3Cl)ccc2n(C(C)C)c1=O (stereo partly drawn) [Compound 254, 2-({6-[(5-chloro-2-{4-[(1r,3r)-3-[(2S,6S)-4-[2-(2,6-dioxopiperidin-3-yl)-1-oxo-2,3-dihydro-1H-isoindol-5-yl]-2,6-dimethylpiperazin-1-yl]cyclobutoxy]piperidin-1-yl}pyrimidin-4-yl)amino]-2-oxo-1-(propan-2-yl)-1,2-dihydroquinolin-3-yl}oxy)-N-methylacetamide] | – | – | ≥ 70 | < 10
3 | CNC(=O)COc1cc2cc(Nc3nc(N4CCC(O[C@H]5C[C@H](N6CCC(c7ccc8c(c7F)[C@H](C)N(C7CCC(=O)NC7=O)C8=O)CC6)C5)CC4)ncc3Cl)ccc2n(C(C)C)c1=O (stereo partly drawn) [Compound 291, 2-({6-[(5-chloro-2-{4-[(1r,3r)-3-{4-[(3S)-2-(2,6-dioxopiperidin-3-yl)-4-fluoro-3-methyl-1-oxo-2,3-dihydro-1H-isoindol-5-yl]piperidin-1-yl}cyclobutoxy]piperidin-1-yl}pyrimidin-4-yl)amino]-2-oxo-1-(propan-2-yl)-1,2-dihydroquinolin-3-yl}oxy)-N-methylacetamide] | – | – | ≥ 70 | < 10
4 | CNC(=O)COc1cc2cc(Nc3nc(N4CCC(CN5CC6(CCN(c7cccc8c7C(=O)N(C7CCC(=O)NC7=O)C8=O)CC6(F)F)C5)CC4)ncc3Cl)ccc2n(C(C)C)c1=O (stereo not drawn) [Compound 124, 2-{[6-({5-chloro-2-[4-({7-[2-(2,6-dioxopiperidin-3-yl)-1,3-dioxo-2,3-dihydro-1H-isoindol-4-yl]-5,5-difluoro-2,7-diazaspiro[3.5]nonan-2-yl}methyl)piperidin-1-yl]pyrimidin-4-yl}amino)-2-oxo-1-(propan-2-yl)-1,2-dihydroquinolin-3-yl]oxy}-N-methylacetamide] | < 10 | 50 to 70 | – | –
5 | CNC(=O)COc1cc2cc(Nc3nc(N4CCC(OC5CCC6(CC5)CN(c5ccc7c(c5)C(=O)N(C5CCC(=O)NC5=O)C7)C6)CC4)ncc3Cl)ccc2n(C(C)C)c1=O (stereo not drawn) [Compound 69, 2-{[6-({5-chloro-2-[4-({2-[2-(2,6-dioxopiperidin-3-yl)-3-oxo-2,3-dihydro-1H-isoindol-5-yl]-2-azaspiro[3.5]nonan-7-yl}oxy)piperidin-1-yl]pyrimidin-4-yl}amino)-2-oxo-1-(propan-2-yl)-1,2-dihydroquinolin-3-yl]oxy}-N-methylacetamide] | < 10 | 50 to 70 | – | –
6 | CNC(=O)COc1cc2cc(Nc3nc(N4CCC(O[C@H]5C[C@H](N6C[C@@H](C)N(c7ccc8c(c7)CN(C7CCC(=O)NC7=O)C8=O)[C@H](C)C6)C5)CC4)ncc3Cl)ccc2n(C(C)C)c1=O (relative stereo) [Compound 179, 2-({6-[(5-chloro-2-{4-[(1r,3r)-3-[(3R*,5R*)-4-[2-(2,6-dioxopiperidin-3-yl)-1-oxo-2,3-dihydro-1H-isoindol-5-yl]-3,5-dimethylpiperazin-1-yl]cyclobutoxy]piperidin-1-yl}pyrimidin-4-yl)amino]-2-oxo-1-(propan-2-yl)-1,2-dihydroquinolin-3-yl}oxy)-N-methylacetamide] | < 10 | ≥ 70 | – | –
7 | CNC(=O)COc1cc2cc(Nc3nc(N4CCC(CN5CC(N6CCC(c7ccc8c(c7)CN(C7CCC(=O)NC7=O)C8=O)C(F)C6)C5)CC4)ncc3Cl)ccc2n(C(C)C)c1=O (stereo not drawn) [Compound 217, 2-({6-[(5-chloro-2-{4-[(3-{4-[2-(2,6-dioxopiperidin-3-yl)-1-oxo-2,3-dihydro-1H-isoindol-5-yl]-3-fluoropiperidin-1-yl}azetidin-1-yl)methyl]piperidin-1-yl}pyrimidin-4-yl)amino]-2-oxo-1-(propan-2-yl)-1,2-dihydroquinolin-3-yl}oxy)-N-methylacetamide] | – | – | 50 to 70 | < 10
8 | CNC(=O)COc1cc2cc(Nc3nc(N4CCC(CN5CCC6(CC5)CC5(CN(c7ccc8c(c7)CN(C7CCC(=O)NC7=O)C8=O)C5)C6)CC4)ncc3Cl)ccc2n(C(C)C)c1=O (stereo not drawn) [Compound 168, 2-{[6-({5-chloro-2-[4-({2-[2-(2,6-dioxopiperidin-3-yl)-1-oxo-2,3-dihydro-1H-isoindol-5-yl]-2,9-diazadispiro[3.1.5^6.1^4]dodecan-9-yl}methyl)piperidin-1-yl]pyrimidin-4-yl}amino)-2-oxo-1-(propan-2-yl)-1,2-dihydroquinolin-3-yl]oxy}-N-methylacetamide] | < 10 | 50 to 70 | – | –
9 | CNC(=O)COc1cc2cc(Nc3nc(N4CCC(O[C@H]5C[C@H](N6CC=C(c7ccc8c(c7Cl)CN(C7CCC(=O)NC7=O)C8=O)CC6)C5)CC4)ncc3Cl)ccc2n(C(C)C)c1=O (stereo partly drawn) [Compound 429, 2-({6-[(5-chloro-2-{4-[(1r,3r)-3-{4-[4-chloro-2-(2,6-dioxopiperidin-3-yl)-1-oxo-2,3-dihydro-1H-isoindol-5-yl]-1,2,3,6-tetrahydropyridin-1-yl}cyclobutoxy]piperidin-1-yl}pyrimidin-4-yl)amino]-2-oxo-1-(propan-2-yl)-1,2-dihydroquinolin-3-yl}oxy)-N-methylacetamide] | – | – | ≥ 70 | < 10
10 | CNC(=O)COc1cc2cc(Nc3nc(N4CCC(O[C@H]5C[C@H](N6CCC(c7ccc8c(c7F)CN(C7CCC(=O)NC7=O)C8=O)CC6)C5)CC4)ncc3Cl)ccc2n(C2CCC2)c1=O (stereo partly drawn) [Compound 190, 2-({6-[(5-chloro-2-{4-[(1r,3r)-3-{4-[2-(2,6-dioxopiperidin-3-yl)-4-fluoro-1-oxo-2,3-dihydro-1H-isoindol-5-yl]piperidin-1-yl}cyclobutoxy]piperidin-1-yl}pyrimidin-4-yl)amino]-1-cyclobutyl-2-oxo-1,2-dihydroquinolin-3-yl}oxy)-N-methylacetamide] | < 10 | ≥ 70 | – | –
11 | CNC(=O)COc1cc2cc(Nc3nc(N4CCC(OC5CCC(N6CCC(c7ccc8c(c7)C(=O)N(C7CCC(=O)NC7=O)C8=O)CC6)C5)CC4)ncc3Cl)ccc2n(C(C)C)c1=O (stereo not drawn) [Compound 42, 2-({6-[(5-chloro-2-{4-[(3-{4-[2-(2,6-dioxopiperidin-3-yl)-1,3-dioxo-2,3-dihydro-1H-isoindol-5-yl]piperidin-1-yl}cyclopentyl)oxy]piperidin-1-yl}pyrimidin-4-yl)amino]-2-oxo-1-(propan-2-yl)-1,2-dihydroquinolin-3-yl}oxy)-N-methylacetamide] | 10 to 50 | 50 to 70 | – | –
12 | CNC(=O)COc1cc2cc(Nc3nc(N4CCC(O[C@H]5CC[C@H](Oc6ccc7c(c6)C(=O)N(C6CCC(=O)NC6=O)C7=O)CC5)CC4)ncc3Cl)ccc2n(C(C)C)c1=O (stereo partly drawn) [Compound 30, 2-[(6-{[5-chloro-2-(4-{[(1r,4r)-4-{[2-(2,6-dioxopiperidin-3-yl)-1,3-dioxo-2,3-dihydro-1H-isoindol-5-yl]oxy}cyclohexyl]oxy}piperidin-1-yl)pyrimidin-4-yl]amino}-2-oxo-1-(propan-2-yl)-1,2-dihydroquinolin-3-yl)oxy]-N-methylacetamide] | 10 to 50 | 50 to 70 | – | –
13 | CNC(=O)COc1cc2cc(Nc3nc(N4CCC(N5CCC56CN(C5CCCN(c7ccc8c(c7)CN(C7CCC(=O)NC7=O)C8=O)C5)C6)CC4)ncc3Cl)ccc2n(C(C)C)c1=O (stereo not drawn) [Compound 222, 2-{[6-({5-chloro-2-[4-(6-{1-[2-(2,6-dioxopiperidin-3-yl)-1-oxo-2,3-dihydro-1H-isoindol-5-yl]piperidin-3-yl}-1,6-diazaspiro[3.3]heptan-1-yl)piperidin-1-yl]pyrimidin-4-yl}amino)-2-oxo-1-(propan-2-yl)-1,2-dihydroquinolin-3-yl]oxy}-N-methylacetamide] | – | – | 50 to 70 | < 10
14 | CNC(=O)COc1cc2cc(Nc3nc(N4CCC(O[C@H]5C[C@H](N6CCN(C7CN(c8ccc9c(c8F)CN(C8CCC(=O)NC8=O)C9=O)C7)CC6)C5)CC4)ncc3Cl)ccc2n(C(C)C)c1=O (stereo partly drawn) [Compound 422, 2-({6-[(5-chloro-2-{4-[(1r,3r)-3-(4-{1-[2-(2,6-dioxopiperidin-3-yl)-4-fluoro-1-oxo-2,3-dihydro-1H-isoindol-5-yl]azetidin-3-yl}piperazin-1-yl)cyclobutoxy]piperidin-1-yl}pyrimidin-4-yl)amino]-2-oxo-1-(propan-2-yl)-1,2-dihydroquinolin-3-yl}oxy)-N-methylacetamide] | – | – | ≥ 70 | < 10
15 | CNC(=O)COc1cc2cc(Nc3nc(N4CCC(O[C@H]5C[C@H](N6CCN(c7ccc8c(c7)CN(C7CCC(=O)NC7=O)C8=O)C(C)(C)C6)C5)CC4)ncc3Cl)ccc2n(C(C)C)c1=O (stereo partly drawn) [Compound 170, 2-({6-[(5-chloro-2-{4-[(1r,3r)-3-{4-[2-(2,6-dioxopiperidin-3-yl)-1-oxo-2,3-dihydro-1H-isoindol-5-yl]-3,3-dimethylpiperazin-1-yl}cyclobutoxy]piperidin-1-yl}pyrimidin-4-yl)amino]-2-oxo-1-(propan-2-yl)-1,2-dihydroquinolin-3-yl}oxy)-N-methylacetamide] | < 10 | ≥ 70 | – | –
